In ChEMBL document CHEMBL1201862, “PubChem BioAssay data set” (2004):
Active and inactive are the calls of the source.

Experiments:
[1] = target: T1, RNA-binding protein pos-1 (Caenorhabditis elegans, UniProt G5EF15); assay: disruptors of C. elegans POS-1 RNA interaction – biochemical, fluorescence polarization, dose response (AID 1964);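 further: purified POS-1 fused to maltose binding protein made in E. coli; potency of compounds blocking POS-1 binding to fluorescent RNA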
T1 sequence (G5EF15 whole entry): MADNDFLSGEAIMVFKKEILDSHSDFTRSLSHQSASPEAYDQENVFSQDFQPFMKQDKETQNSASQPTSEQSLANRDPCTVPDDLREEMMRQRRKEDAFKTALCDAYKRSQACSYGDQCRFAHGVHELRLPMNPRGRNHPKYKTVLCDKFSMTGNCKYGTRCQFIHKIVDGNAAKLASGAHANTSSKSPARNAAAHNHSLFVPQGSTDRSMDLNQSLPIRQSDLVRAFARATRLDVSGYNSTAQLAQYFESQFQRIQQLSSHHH

[2] = target: T2, Zinc finger protein mex-5 (Caenorhabditis elegans, UniProt Q9XUB2); assay: potency of MEX-5 RNA-binding blockers – biochemical, C. elegans, fluorescence polarization, dose response (AID 1960)
T2 sequence (Q9XUB2 whole entry): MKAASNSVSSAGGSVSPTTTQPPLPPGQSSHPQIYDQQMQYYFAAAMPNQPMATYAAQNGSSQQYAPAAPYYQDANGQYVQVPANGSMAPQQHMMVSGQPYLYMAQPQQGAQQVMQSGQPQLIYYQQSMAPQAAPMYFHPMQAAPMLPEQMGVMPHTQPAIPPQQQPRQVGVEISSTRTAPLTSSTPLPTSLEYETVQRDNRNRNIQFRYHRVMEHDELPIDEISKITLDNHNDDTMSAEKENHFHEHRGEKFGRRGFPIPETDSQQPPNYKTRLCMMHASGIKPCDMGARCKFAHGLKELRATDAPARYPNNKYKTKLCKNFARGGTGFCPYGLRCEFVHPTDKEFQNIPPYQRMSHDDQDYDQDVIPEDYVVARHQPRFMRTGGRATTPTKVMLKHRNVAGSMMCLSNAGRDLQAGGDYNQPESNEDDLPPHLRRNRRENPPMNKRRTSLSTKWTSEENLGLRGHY

Streptococcus = assay: GAS UMAA2166 growth inhibition – luminescence, BacTiterGlo, counter-screen for streptokinase expression inhibitor project, dose response (AID 1915); type: functional, organism-based;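 further: potency for reduction of bacterial viability or growth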
[3] = tested on: Streptococcus sp. 'group A'; assay: Streptococcus pyogenes SK(-)GAS viability under kanamycin – luminescence, BacTiterGlo, confirmation, counter-screen for streptokinase expression inhibitor project, dose response (AID 1900); type: functional, organism-based
Streptokinase A = target: T3, Streptokinase A (Streptococcus pyogenes serotype M1, UniProt P10520); assay: viability-normalized secreted streptokinase activity reduction – plasminogen activation absorbance, OD405, dose response (AID 1914); type: functional, Streptococcus pyogenes M1 GAS;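 further: secreted streptokinase activity via plasminogen activation per viability signal from cell pellet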
T3 sequence (P10520 whole entry): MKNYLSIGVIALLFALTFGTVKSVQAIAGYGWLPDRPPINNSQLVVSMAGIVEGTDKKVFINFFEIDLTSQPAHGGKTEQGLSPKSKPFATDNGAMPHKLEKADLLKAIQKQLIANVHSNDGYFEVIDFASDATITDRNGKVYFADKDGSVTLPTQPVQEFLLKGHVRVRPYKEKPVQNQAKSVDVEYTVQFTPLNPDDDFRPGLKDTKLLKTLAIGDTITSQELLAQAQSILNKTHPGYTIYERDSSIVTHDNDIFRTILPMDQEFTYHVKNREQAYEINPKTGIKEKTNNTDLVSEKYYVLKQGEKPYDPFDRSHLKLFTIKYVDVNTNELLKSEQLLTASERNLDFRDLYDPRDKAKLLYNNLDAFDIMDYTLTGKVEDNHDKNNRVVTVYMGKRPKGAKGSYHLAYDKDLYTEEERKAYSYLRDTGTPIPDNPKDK

[4] = target: T4, Corticotropin-releasing factor receptor 2/Corticotropin-releasing factor-binding protein (Homo sapiens, UniProt P24387+Q13324); assay: activators of CRF receptor 2 with binding protein – uHTS hits, confirmation (AID 602473); type: functional; conditions: read-out: EC50_Mean
T4 sequence (Q13324 whole entry): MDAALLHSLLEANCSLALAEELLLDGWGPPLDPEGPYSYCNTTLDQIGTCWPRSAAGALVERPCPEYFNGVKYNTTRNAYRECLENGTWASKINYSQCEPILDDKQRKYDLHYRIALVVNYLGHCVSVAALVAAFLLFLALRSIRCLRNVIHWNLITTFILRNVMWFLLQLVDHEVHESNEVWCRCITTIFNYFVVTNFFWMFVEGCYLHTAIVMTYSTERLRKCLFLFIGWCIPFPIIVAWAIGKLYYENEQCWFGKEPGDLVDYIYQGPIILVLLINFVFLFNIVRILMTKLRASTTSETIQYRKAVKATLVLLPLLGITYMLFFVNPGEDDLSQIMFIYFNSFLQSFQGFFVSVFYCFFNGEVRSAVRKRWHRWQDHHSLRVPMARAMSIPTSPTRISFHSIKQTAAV
T4 sequence (P24387 whole entry): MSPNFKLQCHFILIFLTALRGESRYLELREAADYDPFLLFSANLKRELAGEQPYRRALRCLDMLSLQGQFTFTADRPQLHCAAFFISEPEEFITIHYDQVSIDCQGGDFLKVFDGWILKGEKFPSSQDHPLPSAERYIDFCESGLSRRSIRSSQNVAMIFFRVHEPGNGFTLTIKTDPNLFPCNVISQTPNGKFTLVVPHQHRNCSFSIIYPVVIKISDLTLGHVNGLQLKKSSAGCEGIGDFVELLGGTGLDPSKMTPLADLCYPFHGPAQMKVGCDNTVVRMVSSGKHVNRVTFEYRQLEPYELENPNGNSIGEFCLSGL

H9c2 = assay: cells; type: functional, cell-based; conditions: Rattus norvegicus, H9c2, Myocardium;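 further: confirmatory concentration-response retest of ultra-high-throughput screening hits for modulation of myocardial damage; cell death induced by hydrogen peroxide oxidative stress; compound pretreatment for 60 min then peroxide exposure for 2 h; potency is for protecting the cells against peroxide damage rather than for killing them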
[5] = target: T4, Corticotropin-releasing factor receptor 2/Corticotropin-releasing factor-binding protein; assay: Dose Response confirmation of uHTS hits for small molecule antagonists of the CRF-binding protein and CRF-R2 receptor complex.; type: functional; conditions: read-out: IC50_Mean
[6] = target: T5, Short transient receptor potential channel 4 (Mus musculus, UniProt Q9QUQ5); assay: calcium entry via TRPC4 opening agents – cell-based, HEK293 TRPC4/mu-opioid, Fluo-4 calcium, dose response (AID 434937); type: functional
T5 sequence (Q9QUQ5 whole entry): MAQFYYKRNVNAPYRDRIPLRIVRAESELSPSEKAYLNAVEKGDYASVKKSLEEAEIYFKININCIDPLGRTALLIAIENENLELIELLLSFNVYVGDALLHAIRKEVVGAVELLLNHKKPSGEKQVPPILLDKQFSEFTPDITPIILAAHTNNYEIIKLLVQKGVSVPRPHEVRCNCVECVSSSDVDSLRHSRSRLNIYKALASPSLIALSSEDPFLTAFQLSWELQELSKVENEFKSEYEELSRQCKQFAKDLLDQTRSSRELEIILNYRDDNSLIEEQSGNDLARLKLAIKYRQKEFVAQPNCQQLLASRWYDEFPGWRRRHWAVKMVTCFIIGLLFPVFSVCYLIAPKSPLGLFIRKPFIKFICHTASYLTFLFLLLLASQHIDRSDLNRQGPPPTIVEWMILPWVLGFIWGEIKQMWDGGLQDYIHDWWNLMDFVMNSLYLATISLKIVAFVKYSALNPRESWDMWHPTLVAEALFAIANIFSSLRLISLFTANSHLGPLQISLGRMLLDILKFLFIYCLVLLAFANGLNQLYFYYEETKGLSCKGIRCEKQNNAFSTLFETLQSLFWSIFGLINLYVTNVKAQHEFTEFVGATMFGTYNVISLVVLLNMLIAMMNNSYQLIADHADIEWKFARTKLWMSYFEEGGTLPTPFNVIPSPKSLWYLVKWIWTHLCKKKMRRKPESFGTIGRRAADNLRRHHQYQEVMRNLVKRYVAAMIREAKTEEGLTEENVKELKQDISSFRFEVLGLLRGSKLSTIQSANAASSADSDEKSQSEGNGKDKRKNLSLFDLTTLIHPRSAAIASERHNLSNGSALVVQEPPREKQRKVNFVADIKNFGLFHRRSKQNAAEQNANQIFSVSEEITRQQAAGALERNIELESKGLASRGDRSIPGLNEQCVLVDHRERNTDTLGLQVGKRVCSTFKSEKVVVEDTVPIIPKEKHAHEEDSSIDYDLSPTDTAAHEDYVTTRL

[7] = microbe, parasite or virus in culture; type: functional; conditions: Mycobacterium tuberculosis
cells = type: functional

For `Cc1ccc(C2C(C(=O)c3ccco3)=C(O)C(=O)N2c2nnc(C)s2)cc1` (centres undefined), the EC50 [1] was > 300 µM (not active) and the EC50 [2] was > 300 µM (inconclusive).

For `Cc1ccc(/C=C2/Sc3ccc(C(=O)N4CCN(c5ccccn5)CC4)cc3NC2=O)cc1`, the EC50 (Streptococcus) was 4.43 µM (active), the EC50 [1] was 27.2 µM (active) and the EC50 [2] was 5.05 µM (active). The EC50 [3] was 3.03 µM (active) and the EC50 (Streptokinase A) was > 150 µM (not active).

For `N#C/C(=C1\CCCN1)c1nc(O)c2ccccc2n1`, the EC50 [4] was > 53 µM (inactive), the IC50 (H9c2) was 60.4 µM (inactive) and the IC50 [5] was > 47.1 µM (inactive).

In the case of `COc1ccc(-c2nc(CSCC(=O)NC3CCN(Cc4ccccc4)CC3)c(C)o2)cc1OC`, the EC50 [6] is reported as 1.5 µM (active).

In the case of `CCOc1ccc(C(=O)COC(=O)Cn2[nH]c(=O)c3ccccc3c2=O)cc1`, the IC50 (H9c2) is reported as > 79 µM (inactive).

With `Cc1ccc(-c2ccc(=O)n(CC(=O)N3CCN(c4cc(Cl)ccc4C)CC3)n2)cc1` the CC50 [7] was > 40 µM (active).

In the case of `O=C(Cc1ccccc1)N/N=C/c1ccc2cccc(O)c2n1`, the CC50 [7] is reported as > 40 µM (active).

In the case of `C=CCOC(=O)C1=C[C@H](c2cn(C(C)=O)c3ccccc23)C[C@H](OCc2ccc(CO)cc2)O1`, the IC50 (H9c2) is reported as 10.3 µM (active).

In the case of `Brc1ccc(-c2ccc(/C=N/Nc3nncc(-c4ccccc4)n3)o2)cc1`, the CC50 [7] is reported as 20.7 µM (active).

For `COC(=O)CNC(=O)C1Nc2ccccc2C2C=CCC12` (centres undefined), the EC50 [1] was > 300 µM (not active) and the EC50 [2] was 173 µM (active).

In the case of `CN(C)CCCN(C(=O)c1ccc(S(=O)(=O)N2CCCCCC2)cc1)c1nc2ccc(F)cc2s1`, the EC50 [6] is reported as 4.22 µM (active).

For `Cn1c(=O)[nH]c(=O)c2c1nc(N/N=C/C(Br)=C/c1ccccc1)n2CCO`, the EC50 [1] was 206 µM (active) and the EC50 [2] was 55.5 µM (active).

For `S=C(NCCc1ccccn1)NC1CCCCC1`, the EC50 [6] was 6.68 µM (active).

In the case of `O=C(CSc1ccc(-c2ccccn2)nn1)N1CCCc2ccccc21`, the IC50 (H9c2) is reported as 20.8 µM (active).

For `COC(=O)COc1cccc(/C=N/NC(=O)CCSc2ccccc2)c1`, the IC50 (cells) was 4.13 µM (active).
